This is an account of results in patent US11208404B2 (PERENNA PHARMACEUTICALS, INC., priority 2017, dated 2021).

Assay [1] concerns the target T1, ALCAT1 (Homo sapiens (Human), UniProt Q6UWP7). The assay can be described thus: Cell-based assay for ALCAT inhibitor compounds (H9C2 cells). As to conditions: H9c2, 3 μM compound; H9C2 vector cell line and H9C2 with stable overexpression of ALCAT1. As for the experimental part:
The assay was performed on the H9C2 vector cell line and H9C2 with stable overexpression of ALCAT1. Materials used in the protocol were CoA, LPG, compounds, chloroform, methanol, 0.9% KCl, 6-well-plates, 1.5 mL tubes, DMEM, FBS, P/S and PBS.
Cells were seeded in 6-well-plates, 8×10^5 cells/well, and cultured at 37° C. in 5% CO2 overnight.
Cells were washed once with ice-cold PBS, collected in ice-cold PBS and centrifuged at 5000 rpm for 5 min at 4° C. 200 μL of chloroform: methanol (2:1) was added to the cell pellet, which was vortexed to suspend the cells and incubated at RT for 1 hr.
40 μL of 0.9% KCl was added and the sample was vortexed before centrifugation at 10000 rpm for 5 min at RT. The aqueous phase (upper layer) was discarded and the organic phase (lower layer) was loaded to a TLC plate (10 cm×20 cm), 40 μL/sample.
The plates were developed in chloroform: methanol: water (65:25:4) for about 30 min and scanned using a Typhoon Scanner. The bands intensity was analysed using ImageJ and the inhibition activity of the tested compounds was calculated.
Compound inhibitors for ALCAT1 enzyme were analyzed by an in vitro cell-based assay as detailed above.
Target sequence in this assay (Q6UWP7 whole entry, species assumed): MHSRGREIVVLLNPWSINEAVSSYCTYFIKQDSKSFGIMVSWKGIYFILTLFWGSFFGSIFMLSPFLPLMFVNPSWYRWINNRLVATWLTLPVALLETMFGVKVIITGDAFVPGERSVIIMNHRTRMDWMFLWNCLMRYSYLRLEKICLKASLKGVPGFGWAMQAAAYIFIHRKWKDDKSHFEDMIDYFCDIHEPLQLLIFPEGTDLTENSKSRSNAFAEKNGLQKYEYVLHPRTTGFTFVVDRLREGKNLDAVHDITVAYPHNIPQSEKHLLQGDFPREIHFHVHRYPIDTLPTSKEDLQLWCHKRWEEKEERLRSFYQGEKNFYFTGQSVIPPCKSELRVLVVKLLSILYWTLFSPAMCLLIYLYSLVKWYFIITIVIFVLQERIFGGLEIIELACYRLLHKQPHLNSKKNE

Assay [2] has as its target T1, ALCAT1. The assay can be described thus: In vitro acyltransferase assay for ALCAT1 inhibitors. The format is biochemical. Particulars: for IC50: ALCAT1 enzyme activity. An outline of the steps:
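Membrane fractions from Sf9 cells expressing human ALCAT1 incubated 30 min at room temperature with 100 µM MLCL or LPG and 25 µM [14C]acyl-CoA (or 100 µM NBD-CoA) in 50 mM Tris/HCl pH 7.0.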
Target sequence in this assay (Q6UWP7 whole entry): as the sequence (Q6UWP7 whole entry, species assumed) above

Setting [3] is: 1 μM compound, in vitro enzymatic assay.
The mark [4] stands for this setting: triplicates, GraphPad, read-out: IC50.
Where [5] appears, read: read-out: IC50 values (upper bounds).

Read-outs that look alike come from different tables or passages of the source.

Consider `O=C(Nc1cc(-c2nnc(-c3ccco3)o2)ccc1F)c1cc(F)ccc1OCC(F)(F)F` [Compound 319, 5-Fluoro-N-(2-fluoro-5-(5-(furan-2-yl)-1,3,4-oxadiazol-2-yl)phenyl)-2-(2,2,2-trifluoroethoxy)benzamide], for which the inhibition at 3 µM in assay [1] is 12%. For the same compound, in assay [2] (setting [3]), the inhibition at 1 µM is 96%. In addition, the IC50 in assay [2] (setting [4]) turned out to be 46 nM.

Regarding `O=C(Nc1cc(-c2nnc(-c3ccco3)o2)ccc1F)c1cc(F)ccc1OCC(F)F` [Compound 320, 2-(2,2-Difluoroethoxy)-5-fluoro-N-(2-fluoro-5-(5-(furan-2-yl)-1,3,4-oxadiazol-2-yl)phenyl)benzamide], testing at 3 µM in assay [1] gave an inhibition of 17%. At 1 µM the inhibition in assay [2] (setting [3]) was 96%. Moreover, the IC50 is less than 100 nM in assay [2] (setting [5]) and 34 nM in assay [2] (setting [4]).

With `Cc1ccc(OCCF)c(C(=O)Nc2cc(-c3nnc(-c4ccco4)o3)ccc2F)c1` [Compound 321, N-(2-Fluoro-5-(5-(furan-2-yl)-1,3,4-oxadiazol-2-yl)phenyl)-2-(2-fluoroethoxy)-5-methylbenzamide], the inhibition at 3 µM in assay [1] was 75%. In addition, in assay [2] (setting [3]), the “% inh @ 1 μM” value is recorded as 92% and the inhibition at 1 µM was found to be 94%. In addition, the IC50 in assay [2] (setting [4]) was 38 nM.

As to `Cc1ccc(OCC(F)(F)F)c(C(=O)Nc2cc(-c3nnc(-c4ccco4)o3)ccc2F)c1` [Compound 322, N-(2-fluoro-5-(5-(furan-2-yl)-1,3,4-oxadiazol-2-yl)phenyl)-5-methyl-2-(2,2,2-trifluoroethoxy)benzamide], the inhibition at 3 µM in assay [1] was 26%. In assay [2] (setting [3]), this compound showed an inhibition at 1 µM of 94%. Also, the IC50 in assay [2] (setting [4]) was found to be 61 nM.

Turning to `Cc1ccc(OCC(F)F)c(C(=O)Nc2cc(-c3nnc(-c4ccco4)o3)ccc2F)c1` [Compound 323, 2-(2,2-Difluoroethoxy)-N-(2-fluoro-5-(5-(furan-2-yl)-1,3,4-oxadiazol-2-yl)phenyl)-5-methylbenzamide], at 3 µM the inhibition in assay [1] was 14%. In addition, the inhibition at 1 µM in assay [2] (setting [3]) came to 96%. Also, the IC50 was less than 100 nM in assay [2] (setting [5]) and 26 nM in assay [2] (setting [4]).

In assay [1], `CCOc1ccc(CC)cc1C(=O)Nc1cc(-c2nnc(-c3ccco3)o2)ccn1` [Compound 373, 2-Ethoxy-5-ethyl-N-(4-(5-(furan-2-yl)-1,3,4-oxadiazol-2-yl)pyridin-2-yl)benzamide] came in with an inhibition at 3 µM of 3%. For the same compound, the inhibition at 1 µM in assay [2] (setting [3]) amounted to 98%. Also, the IC50 in assay [2] (setting [4]) worked out at 38 nM.

For the compound `COc1ccc(C(F)(F)F)cc1C(=O)Nc1cc(-c2nnc(-c3ccco3)o2)ccn1` [Compound 396, N-(4-(5-(Furan-2-yl)-1,3,4-oxadiazol-2-yl)pyridin-2-yl)-2-methoxy-5-(trifluoromethyl)benzamide], the inhibition at 3 µM in assay [1] is 45%. Further, the inhibition at 1 µM in assay [2] (setting [3]) was determined as 96%. Also, the IC50 in assay [2] (setting [4]) came to 78 nM.

In assay [1], `COc1ccc(OC(F)(F)F)cc1C(=O)Nc1cc(-c2nnc(-c3ccco3)o2)ccn1` [Compound 400, N-(4-(5-(Furan-2-yl)-1,3,4-oxadiazol-2-yl)pyridin-2-yl)-2-methoxy-5-(trifluoromethoxy)benzamide] displayed an inhibition at 3 µM of 50%. In addition, the inhibition at 1 µM in assay [2] (setting [3]) was 96%. Moreover, the half-maximal inhibitory concentration (IC50) in assay [2] (setting [4]) was 62 nM.

`COc1ccc(OC(F)(F)F)cc1C(=O)Nc1cc(-c2nnc(-c3ccco3)o2)ccc1F` [Compound 405, N-(2-Fluoro-5-(5-(furan-2-yl)-1,3,4-oxadiazol-2-yl)phenyl)-2-methoxy-5-(trifluoromethoxy)benzamide] yielded an inhibition at 3 µM in assay [1] of 52%. The compound also yielded an inhibition at 1 µM in assay [2] (setting [3]) of 98%. For the same compound, the IC50 is less than 100 nM in assay [2] (setting [5]) and 19 nM in assay [2] (setting [4]).

In assay [1], `COc1ccc(C(F)(F)F)cc1C(=O)Nc1cc(-c2nnc(-c3ccco3)o2)ccc1F` [Compound 416, N-(2-Fluoro-5-(5-(furan-2-yl)-1,3,4-oxadiazol-2-yl)phenyl)-2-methoxy-5-(trifluoromethyl)benzamide] registered an inhibition at 3 µM of 45%. Moreover, testing at 1 µM in assay [2] (setting [3]) gave an inhibition of 98%. Moreover, the IC50 in assay [2] (setting [5]) was less than 100 nM; in assay [2] (setting [4]) it was 19 nM.

`CCOc1ccc(CC)cc1C(=O)N(c1cc(-c2nnc(-c3ccco3)o2)ccc1F)P(=O)(O)O` [Compound 497, (2-ethoxy-5-ethylbenzoyl) (2-fluoro-5-(5-(furan-2-yl)-1,3,4-oxadiazol-2-yl)phenyl)phosphoramidic acid] gave an inhibition at 3 µM in assay [1] of 75%. Moreover, the inhibition at 1 µM in assay [2] (setting [3]) amounted to 90%. In addition, the IC50 in assay [2] (setting [4]) came to 72 nM.

What is called inhibition is how much of the control response was suppressed. Read a high inhibition as a response far below the control. Usually IC50 stands for the concentration that gives 50% inhibition.
